According to patent US7763728B2, “Tetrahydropyridothiophenes” (4SC AG, priority 2005, dated 2010):

Experiments:
[1] = tested on: RKO colon adenocarcinoma cells (RKOp27) arrested by the expression of ectopic p27Kip1; assay: Alamar Blue cell viability assay on RKOp27 cells arrested by p27Kip1 expression induced by Ponasterone A; assay type: cell-based; details: Homo sapiens, 72 hours incubation, 10 μM Ponasterone A, read-out: IC50 RKO p27 induced (arrested)
Protocol: To determine the cell cycle specific mode of action, subclones of RKO colon adenocarcinoma cells (RKOp27 or RKOp21 as described by Schmidt et al. in Oncogene 19, 2423-2429; 2000) are seeded into 96 well flat bottom plates at a density of 15000 cells per well in a volume of 50 μl per well in DMEM growth medium with 10% FCS containing 10 μM Ponasterone A. 24 hours after seeding the 50 μl each of the compound dilutions in DMEM medium are added into each well of the 96 Well plate. Each compound dilution is tested as quadruplicates. Wells containing untreated control cells are filled with 50 μl DMEM medium containing 1% DMSO. The cells are then incubated with the substances for 72 hours at 37° C. in a humidified atmosphere containing 5% carbon dioxide. To determine the viability of the cells, 10 μl of an Alamar Blue solution (Biosource) are added and the fluorescence was measured at an extinction of 544 nm and an emission of 590 nm. For the calculation of the cell viability the emission value from untreated cells is set as 100% viability and the emission rates of treated cells are set in relation to the values of untreated cells. Viabilities are expressed as % values. Viability is compared of proliferating cells grown in the absence of the inducer Ponasterone A, versus viability of cells arrested by the expression of ectopic p27Kip1 induced by Ponasterone A.

[2] = tested on: RKO (RKOp27) human colon adenocarcinoma cells; assay: Alamar Blue cell viability assay, anti-proliferative/cytotoxic activity on proliferating (uninduced) RKOp27 cells; assay type: cell-based; details: 72 hours incubation, absence of the inducer Ponasterone A, read-out: IC50 RKO p27 uninduced (proliferating)
Protocol: The anti-proliferative/cytotoxic activity of the compounds described herein, can be tested on subclones of RKO (RKOp27) human colon adenocarcinoma cells (Schmidt et al., Oncogene 19, 2423-2429; 2000) using the Alamar Blue cell viability assay (described in O'Brien et al. Eur J Biochem 267, 5421-5426, 2000). The compounds are dissolved as 20 mM solutions in dimethylsulfoxide (DMSO) and subsequently diluted in semi-logarithmic steps. DMSO dilutions are further diluted 1:100 into Dulbecco's modified Eagle's medium (DMEM) containing 10% fetal calf serum to a final concentration twice as much as the final concentration in the test. RKO subclones are seeded into 96 well flat bottom plates at a density of 5000 cells per well in a volume of 50 μl per well. 24 hours after seeding the 50 μl each of the compound dilutions in DMEM medium are added into each well of the 96 Well plate. Each compound dilution is tested as quadruplicates. Wells containing untreated control cells are filled with 50 μl DMEM medium containing 1% DMSO. The cells are then incubated with the substances for 72 hours at 37° C. in a humified atmosphere containing 5% carbon dioxide. To determine the viability of the cells, 10 μl of an Alamar Blue solution (Biosource) are added and the fluorescence is measured at an extinction of 544 nm and an emission of 590 nm. For the calculation of the cell viability the emission value from untreated cells is set as 100% viability and the emission rates of treated cells are set in relation to the values of untreated cells. Viabilities are expressed as % values.
The corresponding IC50 values of the compounds for anti-proliferative/cytotoxic activity are determined from the concentration-effect curves.
Representative IC50 values for anti-proliferation/cytotoxicity determined in the mentioned assay follow from the following table A, in which the numbers of the compounds correspond to the numbers of the examples.

Row | SMILES | IC50 [1] [nM] | IC50 [2] [nM]
1 | CCOc1ccccc1CCC(=O)Nc1sc2c(c1C#N)CCN(C(=O)CCc1cccnc1)C2 [Example 22, N-[3-Cyano-6-(3-pyridin-3-yl-propanoyl)-4,5,6,7-tetrahydro-thieno[2,3-c]pyridin-2-yl]-3-(2-ethoxy-phenyl)-propionamide] | > 100000 | ≤ 300
2 | COc1ccc(C)cc1CCC(=O)Nc1sc2c(c1C#N)CCN(C(=O)Cc1ccccn1)C2 [Example 60, N-[3-Cyano-6-(2-pyridin-2-yl-ethanoyl)-4,5,6,7-tetrahydro-thieno[2,3-c]pyridin-2-yl]-3-(2-methoxy-5-methyl-phenyl)-propionamide] | > 100000 | ≤ 300
3 | COc1cccc(C(C)CC(=O)Nc2sc3c(c2C#N)CCN(C(=O)Cc2ccccn2)C3)c1 (stereo not drawn) [Example 58, N-[3-Cyano-6-(2-pyridin-2-yl-ethanoyl)-4,5,6,7-tetrahydro-thieno[2,3-c]pyridin-2-yl]-3-(3-methoxy-phenyl)-butyramide] | > 100000 | 300 to 2000
4 | CCOc1ccccc1CCC(=O)Nc1sc2c(c1C#N)CCN(C(=O)CCn1ccnc1C)C2 [Example 109, N-{3-Cyano-6-[3-(2-methyl-imidazol-1-yl)-propanoyl]-4,5,6,7-tetrahydro-thieno[2,3-c]pyridin-2-yl}-3-(2-ethoxy-phenyl)-propionamide] | ≥ 10000 | ≤ 300
5 | CCOc1ccccc1CCC(=O)Nc1sc2c(c1C#N)CCN(C(=O)CCc1ccccn1)C2 [Example 17, N-[3-Cyano-6-(3-pyridin-2-yl-propanoyl)-4,5,6,7-tetrahydro-thieno[2,3-c]pyridin-2-yl]-3-(2-ethoxy-phenyl)-propionamide] | ≥ 40000 | ≤ 300
6 | CCOc1ccccc1C(C)CC(=O)Nc1sc2c(c1C#N)CCN(C(=O)Cc1ccncc1)C2 (racemic) [Example 71, (RS)—N-[3-Cyano-6-(2-pyridin-4-yl-ethanoyl)-4,5,6,7-tetrahydro-thieno[2,3-c]pyridin-2-yl]-3-(2-ethoxy-phenyl)-butyramide] | > 100000 | ≤ 300
7 | COc1ccccc1CCC(=O)Nc1sc2c(c1C#N)CCN(C(=O)CCn1ccnc1C)C2 [Example 108, N-{3Cyano-6-[3-(2-methyl-imidazol-1-yl)-propanoyl]-4,5,6,7-tetrahydro-thieno[2,3-c]pyridin-2-yl}-3-(2-methoxy-phenyl)-propionamide] | ≥ 10000 | 300 to 2000
8 | CCOc1ccccc1CCC(=O)Nc1sc2c(c1C#N)CCN(C(=O)Cn1cc(C)nc1C)C2 [Example 148, N-{3-Cyano-6-[2-(2,4-dimethyl-imidazol-1-yl)-ethanoyl]-4,5,6,7-tetrahydro-thieno[2,3-c]pyridin-2-yl}-3-(2-ethoxy-phenyl)-propionamide] | ≥ 10000 | ≤ 300

The next lines start with results.

Row | IC50 [1] [nM] | SMILES | IC50 [2] [nM]
9 | ≥ 10000 | COc1cccc(CCC(=O)Nc2sc3c(c2C#N)CCN(C(=O)CCn2cnc(C)c2)C3)c1 [Example 154, N-{3-Cyano-6-[3-(4-methyl-imidazol-1-yl)-propanoyl]-4,5,6,7-tetrahydro-thieno[2,3-c]pyridin-2-yl}-3-(3-methoxy-phenyl)-propionamide] | 300 to 2000
10 | > 100000 | COc1cccc(CCC(=O)Nc2sc3c(c2C#N)CCN(C(=O)CCc2ccncc2)C3)c1 [Example 15, N-[3-Cyano-6-(3-pyridin-4-yl-propanoyl)-4,5,6,7-tetrahydro-thieno[2,3-c]pyridin-2-yl]-3-(3-methoxy-phenyl)-propionamide] | 300 to 2000
11 | > 100000 | COCC(=O)N1CCc2c(sc(NC(=O)CCc3cccc(OC)c3)c2C#N)C1 [Example 18, N-[3-Cyano-6-(2-methoxy-ethanoyl)-4,5,6,7-tetrahydro-thieno[2,3-c]pyridin-2-yl]-3-(3-methoxy-phenyl)-propionamide] | 300 to 2000
12 | ≥ 40000 | COc1ccccc1CCC(=O)Nc1sc2c(c1C#N)CCN(C(=O)Cc1cccnc1)C2 [Example 2, N-[3-Cyano-6-(2-pyridin-3-yl-ethanoyl)-4,5,6,7-tetrahydro-thieno[2,3-c]pyridin-2-yl]-3-(2-methoxy-phenyl)-propionamide] | ≤ 300
